This is an account of results in patent US20100292287A1, “Periodontitis treatment” (priority 2009, published 2010).

Data set [1] has as its system non-diabetic Sprague Dawley rats injected with lipopolysaccharide from Porphyromonas gingivalis. Description: LPS-induced periodontitis (alveolar bone loss, root/enamel ratio) in non-diabetic rats fed ARI diets. The note with it: for ratio of exposed root to enamel area, LPS side / ratio of exposed root to enamel area, PBS side: non-diabetic rats; for ratio of exposed root to enamel area, LPS side: first value of 'LPS and PBS sides ... respective ratios'; for ratio of exposed root to enamel area, PBS side: second value of 'LPS and PBS sides ... respective ratios'; for difference in the ratios between the LPS and PBS sides: normal (non-diabetic) rats, FIG. 7. In kind it is in vivo, rat. As to the method: (§1) All rats with blood glucose levels >300 mg/dL were then equally divided into 4 groups. The first diabetic group of 8 rats received standard rat diet (BioServe), the second received similar rat diet containing 0.015% of tolrestat, the third group received similar diet containing 0.0125% imirestat, and the fourth group received similar diet containing 0.08% quercetin. Experimental diets were initiated 10 days following initial streptozotocin injections and continued for 10 weeks until the studies were terminated. Non-diabetic age-matched rats were also added as additional non-diabetic controls. These consisted of 4 groups of 8 rats each as follows: an untreated non-diabetic group received standard rat diet, the second control group received similar rat diet containing 0.015% of tolrestat, the third control group received similar diet containing 0.0125% imirestat, and the fourth control group received similar diet containing 0.08% quercetin.
(§2) Forty-four days after initiation of diets, each rat was anesthetized with 4% isoflurane vapor in an induction chamber. Each rat was then placed on its back and the palatal gingiva between the first and second maxillary molars on the right side was injected with 10 μL of a phosphate-buffered saline (PBS) solution containing 1 mg/mL lipopolysaccharide LPS from Porphyromonas gingivalis (InvivoGen, San Diego, Calif.) using an insulin syringe equipped with a blunted edge 30-gauge needle to induce the formation of periodontitis. As a control, 10 μL of PBS was similarly injected into the left side of the jaw. This injection was followed by two additional injections at 48-hour intervals. Twenty-four days after the final injection, all rats were euthanized with carbon dioxide gas. The heads were decapitated with a guillotine and frozen for subsequent defleshing. Blood from each rat was obtained by heart puncture and HbA1c levels were measured using the Metrika A1cNOW Plus System Test Strips (Fisher Healthcare).
Each thawed head was manually defleshed using standard dental instruments by Dr. James O'Meara, Assoc. Professor of General Dentistry at Creighton University of Omaha, Nebr. The maxillary area was separated from the remaining skull using bone cutters, and each defleshed left and right maxillary alveolus with molars were stored in PBS buffer. Finally, all cleaned maxillary alveoli were placed in 3% aqueous peroxide solution overnight and air dried. They were then stained in 5% aqueous toluidine blue to identify the cemento-enamel junction (CEJ) on the molars. After air drying, each stained preparation was examined under a dissecting microscope and cleaned of any remaining flesh particles using the tip of a 20-gauge needle. Each palatal preparation was then placed onto a 20 mm petri dish containing ultrafine chromatography grade silica and a mm ruler. The maxilla-molar area palatal sides were then photographed using a PAXcam2+ USB2 Digital Microscope Camera attached to a Zeiss dissection microscope at 40' magnification. 2.0 MP images were captured with 1616×1216 image resolution. The images were analyzed using Pax-it software (Paxcam, Chicago, Ill.). Care was taken to obtain images with consistent camera angles.
In each image the two molars between which the injections were made were analyzed. The exposed side of each molar was manually outlined along with the area encompassed by the cemento-enamel junction (CEJ) and exposed root area. To facilitate differentiation of the exposed root area and the CEJ, each photograph was photo-enhanced as required using sharpening or desaturating techniques. Multiple tracings were obtained and averaged for each image. Moreover, since tooth movement can also increase variability, multiple images of the same sample were also analyzed, if necessary. The area measurements from both molars were combined, and from these combined area measurements, a ratio of exposed root area (root to the CEJ) versus enamel area was obtained. […]

In data set [2] the test system is diabetic Sprague Dawley rats injected with lipopolysaccharide from Porphyromonas gingivalis. Put plainly: LPS-induced periodontitis (alveolar bone loss, root/enamel ratio) in streptozotocin diabetic rats fed ARI diets. Format: in vivo, rat. The note with it: for ratio of exposed root to enamel area, LPS side: LPS injected (right) side; for ratio of exposed root to enamel area, LPS side / ratio of exposed root to enamel area, PBS side: mean±S.E.M.; for ratio of exposed root to enamel area, PBS side: PBS injected (left, internal control) side. As to the method: A group of 80 approximately 81-100 g male Sprague Dawley rats were utilized for this study. Diabetes was induced in 40 of these rats by tail vein injection of 75 mg/kg of streptozotocin. After 3 days, blood glucose (BG) levels in blood obtained from tail vein lacerations were analyzed with a commercial glucometer (Freestyle by TheraSense, Alameda, Calif.). Each rat with BG levels <300 mg/dL were reinjected with streptozotocin. Again, BGs were measured after 3 days, and the procedure was repeated a third time for remaining rats with BGs <300 mg/dL.
as §1
A maximum of 3 rats were housed per cage. Weekly consumption of diet/cage and body weights of each cage occupant was measured throughout the study. Drugs diets were prepared by adding the appropriate weight of drug to 3 kg portions of standard rat chow as follows. The weighed drug dissolved in 400 mL of ethanol was uniformly sprayed onto a monolayer of the rat chow. After the upper layer of chow was uniformly wetted, the chow was mixed and again formed into a monolayer, and the procedure was repeated until the entire drug solution was utilized. Following overnight oven drying to ensure that all solvent was removed, weighed amounts of diet were administered to each appropriate group of animals.
as §2
Each thawed head was manually defleshed using standard dental instruments by Dr. James O'Meara, Assoc. Professor of General Dentistry at Creighton University of Omaha, Nebr. The maxillary area was separated from the remaining skull using bone cutters, and each defleshed left and right maxillary alveolus with molars were stored in PBS buffer. Finally, all cleaned maxillary alveoli were placed in 3% aqueous peroxide solution overnight and air dried. They were then stained in 5% aqueous toluidine blue to identify the cemento-enamel junction (CEJ) on the molars. After air drying, each stained preparation was examined under a dissecting microscope and cleaned of any remaining flesh particles using the tip of a 20-gauge needle. […]

The target in another data set is T1, TNF-α (Mus musculus, UniProt P06804).
T1 construct: host or cells: diabetic mice (in vivo, endogenous TNF-α)
T1 sequence (P06804 80-235 limits assumed): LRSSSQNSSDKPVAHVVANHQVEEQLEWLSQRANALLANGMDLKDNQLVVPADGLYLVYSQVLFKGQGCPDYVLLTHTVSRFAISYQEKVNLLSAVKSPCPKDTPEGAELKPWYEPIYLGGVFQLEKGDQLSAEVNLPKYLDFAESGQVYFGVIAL
The note with it: diabetic mice inoculated with Porphyromonas gingivalis; cited from earlier work.

The subject of another data set is crevicular PMNs. The note with it: rats with chemically induced diabetes; cited from earlier work.
In a further data set the test system is diabetic mice. The note with it: cited from earlier work.
The conditions of data set [3]: commercial version (Alredase), withdrawn 1996 or 1997; cited from earlier work.

Turning to `O=c1c(O)c(-c2ccc(O)c(O)c2)oc2cc(O)cc(O)c12` [quercetin], in data set [1], the “ratio of exposed root to enamel area, LPS side” value (from here on “ratio of exposed root … LPS side”) came out at 0.406±0.018; the “ratio of exposed root to enamel area, PBS side” value (shortened to “ratio of exposed root … PBS side”) came to 0.417±0.042; the “difference in the ratios between the LPS and PBS sides” value is given as “no significant difference”. In addition, in data set [2], the “ratio of exposed root … LPS side” value is 0.448±0.057 and the “ratio of exposed root … PBS side” value was determined as 0.440±0.023.

`O=C1NC(=O)C2(N1)c1cc(F)ccc1-c1ccc(F)cc12` [imirestat]: in data set [1], the “ratio of exposed root … LPS side” value is listed as 0.412±0.016; the “ratio of exposed root … PBS side” value came to 0.439±0.0132; the “difference in the ratios between the LPS and PBS sides” value is “no significant difference”. Besides, in data set [2], the “ratio of exposed root … LPS side” value turned out to be 0.439±0.043 and the “ratio of exposed root … PBS side” value amounted to 0.421±0.029. Moreover, the alveolar bone loss entry in data set [2] (result in words) is recorded as “effective in reducing alveolar bone loss”.

As to Enbrel, the prolonged cytokine expression entry on TNF-α was “reversal of the prolonged cytokine expression”.

“insulin: insulin administration to diabetic rats”: the “chemotactic response of crevicular PMNs to casein” value in the data set on crevicular PMNs is on record as “reverses this decrease”.

“N-benzyloxycarbonyl-Val-Ala-Asp-fluoromethyl-ketone [z-VAD-fmk]”: the “healing parameters (fibroblast density, collagen I and III mRNA, matrix formation, bone-lining cells, new bone formation)” value in the data set with diabetic mice is listed as “significant improvements in several healing parameters”.

As to `COc1ccc2c(C(=S)N(C)CC(=O)O)cccc2c1C(F)(F)F` [tolrestat], in data set [1], the “ratio of exposed root … LPS side” value is 0.435±0.039; the “ratio of exposed root … PBS side” value came to 0.422±0.036; the “difference in the ratios between the LPS and PBS sides” value was “no significant difference”. The “ratio of exposed root … PBS side” value in data set [2] stood at 0.435±0.010. For the same compound, the “reported adverse events leading to market withdrawal” value in data set [3] is recorded as “fatalities from hepatic necrosis”.
